Test results published in PMC9649518, “Knockout of ABC transporters by CRISPR/Cas9 contributes to reliable and accurate transporter substrate identification for drug discovery” (Frontiers in Pharmacology, 2022).

How the values were obtained:
[1] = test system: MDCKⅡ-MDR1; parameters: method as in Agarwal et al., 2007; conditions: MDCKⅡ-MDR1 treated with P-gp inhibitors; ref Agarwal et al., 2007; cited from earlier work
[2] = test system: MRP2; parameters: method as in Bierman et al., 2010; Holmstock et al., 2018; conditions: 5 μM and 10 µM; ref Bierman et al., 2010; Holmstock et al., 2018; cited from earlier work
[3] = Bidirectional transport assay across Caco-2 WT monolayers; conditions: human, Caco-2, pH 7.4
Experimental: (§1) Then, HBSS was aspirated from both sides.
(§2) For MRP2, the nonfluorescent compound CDCFDA was used as the probe substrate. […] After treatment, samples were transferred to black-walled 96-well assay plates. A standard curve of 2-fold serial dilution from 10 µM CDCF was generated. The CDCF concentration was measured based on the fluorescence in a microplate fluorescence reader (Tecan, Switzerland) set at 485 nm and 530 nm for the excitation and emission wavelengths, respectively.

[4] = Bidirectional transport assay across P-gp KO Caco-2 monolayers; conditions: human, pH 7.4
[5] = Bidirectional transport assay across BCRP KO Caco-2 monolayers; conditions: human, pH 7.4
Experimental: as §1, §2

[6] = Bidirectional transport assay across MRP2 KO Caco-2 monolayers; conditions: human
Experimental: as §1, §2

[7] = Bidirectional transport assay across P-gp/BCRP double KO Caco-2 monolayers; conditions: human, pH 7.4
Experimental: (§3) The medium was replaced every second day.
as §1, §2

[8] = Bidirectional transport assay across P-gp/MRP2 double KO Caco-2 monolayers; conditions: human, pH 7.4
Experimental: as §3, §1, §2

[9] = Bidirectional transport assay across MRP2/BCRP double KO Caco-2 monolayers; conditions: human
Experimental: as §1, §2

[10] = test system: MRP2; parameters: method as in Koenig et al., 2010; Swedrowska et al., 2017; conditions: 50 µM; Caco-2 cells; ref Koenig et al., 2010; Swedrowska et al., 2017; cited from earlier work

Compound | Increase of Papp (A-B) [1] | Transport activity of MRP2 [2] | Papp A→B at 1 h, 5 μM [3] [×10⁻⁶ cm/s] | Papp B→A at 1 h, 5 μM [3] [×10⁻⁶ cm/s] | Papp A→B at 1 h, 5 μM [4] [×10⁻⁶ cm/s] | Papp B→A at 1 h, 5 μM [4] [×10⁻⁶ cm/s] | Papp A→B at 1 h, 5 μM [5] [×10⁻⁶ cm/s] | Papp B→A at 1 h, 5 μM [5] [×10⁻⁶ cm/s] | Papp B→A at 1 h, 5 μM ([6]; pH 7.4) [×10⁻⁶ cm/s] | Papp A→B at 1 h, 5 μM ([6]; pH 7.4, Papp A-to-B, Caco^MRP2−/−, 5 μM substrate, 1 h, 37°C, HBSS pH 7.4, n = 3) [×10⁻⁶ cm/s] | Papp A→B at 1 h, 5 μM [7] [×10⁻⁶ cm/s] | Papp B→A at 1 h, 5 μM [7] [×10⁻⁶ cm/s] | Papp A→B at 1 h, 5 μM [8] [×10⁻⁶ cm/s] | Papp B→A at 1 h, 5 μM [8] [×10⁻⁶ cm/s] | Papp B→A at 1 h, 5 μM ([9]; pH 7.4) [×10⁻⁶ cm/s] | Papp A→B at 1 h, 5 μM ([9]; pH 7.4, Papp A-to-B, Caco^MRP2−/−BCRP−/−, 5 μM substrate, 1 h, 37°C, HBSS pH 7.4, n = 3) [×10⁻⁶ cm/s] | Effect on darunavir efflux transport [10]
Cc1cccc(C)c1OCC(=O)N[C@@H](Cc1ccccc1)[C@@H](O)C[C@H](Cc1ccccc1)NC(=O)[C@H](C(C)C)N1CCCNC1=O [Lopinavir, lopinavir] | up to 6 folds | inhibited | 3.25 ± 0.59 | 24.5 ± 2.04 | 10.2 ± 0.27 | 6.59 ± 0.62 | 5.79 ± 0.64 | 18.4 ± 0.98 | 20.1 ± 2.26 | ~1 | 15.2 ± 1.44 | 10.3 ± 0.82 | 13.8 ± 1.01 | 11.5 ± 0.96 | 19 ± 3.05 | ~1 | 
O=C1OC(c2ccc(O)c(S(=O)(=O)O)c2)(c2ccc(O)c(S(=O)(=O)O)c2)c2c(Br)c(Br)c(Br)c(Br)c21 [bromsulphthalein] |  |  |  |  |  |  |  |  |  |  |  |  |  |  |  |  | significant suppression
